Laboratory results: patent publication US6355799B1, “Substituted benzene compounds, process for their preparation, and herbicidal and defoliant compositions containing them” (ISK Americas Incorporated, priority 1997, dated 2002)

What was measured:
Assay type in all cases: in vivo
[1] = tested on: redroot pigweed (Amaranthus retroflexus, AMARE); experiment: Pre-emerge test, greenhouse herbicide activity screening; settings: rating scale 0-100, 14 days after application
Method in brief: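 Herbicidal damage is scored 0 (none) to 100 (complete plant death) two weeks after a simulated field spray. Rates span 15–1000 g ai/ha, delivered in acetone at 187 l/ha. For post-emergence treatments, plants have 2–3 leaves and the spray carries 0.25% v/v non-ionic surfactant.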

[2] = tested on: barnyardgrass (Echinochloa crus-galli, ECHCG); experiment: as above; settings: rating scale 0-100, 14 days after application
Method in brief: (§1)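 Fourteen days after spraying, crop and weed injury was graded visually from 0, no effect, to 100, every plant dead. Test substances were dissolved in acetone and applied at 15–1000 g ai/ha with a flat-fan nozzle. Application was either pre-emergence, one day after sowing, or post-emergence at the 2–3 leaf stage.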

[3] = tested on: green foxtail (Setaria viridis, SETVI); experiment: as above; settings: rating scale 0-100, 14 days after application
Method in brief: as §1

[4] = tested on: ivyleaf morningglory (Ipomoea hederacea, IPOHE); experiment: as above; settings: rating scale 0-100, 14 days after application
Method in brief: as §1

[5] = tested on: johnsongrass (Sorghum halepense, SORHA); experiment: as above; settings: rating scale 0-100, 14 days after application
Method in brief: as §1

[6] = tested on: lambsquarters (Chenopodium album, CHEAL); experiment: as above; settings: rating scale 0-100, 14 days after application
Method in brief: as §1

[7] = tested on: large crabgrass (Digitaria sanguinalis, DIGSA); experiment: as above; settings: rating scale 0-100, 14 days after application
Method in brief: as §1

[8] = tested on: sicklepod (Cassia obtusifolia, CASOB); experiment: as above; settings: rating scale 0-100, 14 days after application
Method in brief: as §1

[9] = tested on: velvetleaf (Abutilon theophrasti, ABUTH); experiment: as above; settings: rating scale 0-100, 14 days after application
Method in brief: as §1

[10] = tested on: field corn (Zea mays L., var. Dekalb 535, CORN); experiment: Pre-emerge test, crop safety; settings: rating scale 0-100, 14 days after application
Method in brief: (§2)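 Compounds in acetone were track-sprayed at 187 l/ha, 15–1000 g ai/ha, onto sandy loam pots. Pre-emerge seeds were sown one day before spraying, with surface watering afterwards. Post-emerge plants were at the 2–3 leaf stage and sprayed with 0.25% v/v non-ionic surfactant. Injury was rated 0–100 at 14 days.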

[11] = tested on: upland rice (Oryza sp., var. Tebonnet, RICE); experiment: Pre-emerge test, crop safety; settings: rating scale 0-100, 14 days after application
Method in brief: as §2

[12] = tested on: barnyardgrass (Echinochloa crus-galli, ECHCG); experiment: Post-emerge test, greenhouse herbicide activity screening; settings: rating scale 0-100 (0 no damage, 100 complete death), 14 days after application
Method in brief: (§3)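 Compounds in acetone were track-sprayed at 15–1000 g ai/ha: pre-emergence onto soil sown the previous day, then top-watered to incorporate and later bottom-watered; post-emergence onto 2–3 leaf plants with 0.25% v/v surfactant, bottom-watered only. Ratings on a 0–100 phytotoxicity scale were taken at day 14.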

[13] = tested on: common ragweed (Ambrosia artemisizfolia L., AMBEL); experiment: as above; settings: rating scale 0-100 (0 no damage, 100 complete death), 14 days after application
Method in brief: as §3

[14] = tested on: green foxtail (Setaria viridis, SETVI); experiment: as above; settings: rating scale 0-100 (0 no damage, 100 complete death), 14 days after application
Method in brief: as §3

[15] = tested on: ivyleaf morningglory (Ipomoea hederacea, IPOHE); experiment: as above; settings: rating scale 0-100 (0 no damage, 100 complete death), 14 days after application
Method in brief: as §3

[16] = tested on: johnsongrass (Sorghum halepense, SORHA); experiment: as above; settings: rating scale 0-100 (0 no damage, 100 complete death), 14 days after application
Method in brief: as §3

[17] = tested on: lambsquarters (Chenopodium album, CHEAL); experiment: as above; settings: rating scale 0-100 (0 no damage, 100 complete death), 14 days after application
Method in brief: as §3

[18] = tested on: large crabgrass (Digitaria sanguinalis, DIGSA); experiment: as above; settings: rating scale 0-100 (0 no damage, 100 complete death), 14 days after application
Method in brief: as §3

[19] = tested on: redroot pigweed (Amaranthus retroflexus, AMARE); experiment: as above; settings: rating scale 0-100 (0 no damage, 100 complete death), 14 days after application
Method in brief: as §3

[20] = tested on: sicklepod (Cassia obtusifolia, CASOB); experiment: as above; settings: rating scale 0-100 (0 no damage, 100 complete death), 14 days after application
Method in brief: as §3

[21] = tested on: velvetleaf (Abutilon theophrasti, ABUTH); experiment: as above; settings: rating scale 0-100 (0 no damage, 100 complete death), 14 days after application
Method in brief: as §3

[22] = tested on: field corn (Zea mays L., var. Dekalb 535, CORN); experiment: Post-emerge test, crop safety; settings: rating scale 0-100 (0 no damage, 100 complete death), 14 days after application
Method in brief: as §1

[23] = tested on: upland rice (Oryza sp., var. Tebonnet, RICE); experiment: Post-emerge test, crop safety; settings: rating scale 0-100 (0 no damage, 100 complete death), 14 days after application
Method in brief: as §1

COc1c(Cl)cc(F)c(-n2c(=O)cc(C(F)(F)F)n(C)c2=O)c1CC(Cl)C(=O)OCCC#N (stereo not shown) [14-29]
Pre-emerge herbicidal activity, phytotoxicity rating AMARE ([1]; 63 g ai/ha): 20
Pre-emerge herbicidal activity, phytotoxicity rating AMARE ([1]; 250 g ai/ha): 95
Pre-emerge herbicidal activity, phytotoxicity rating ECHCG ([2]; 63 g ai/ha): 0
Pre-emerge herbicidal activity, phytotoxicity rating ECHCG ([2]; 250 g ai/ha): 0
Pre-emerge herbicidal activity, phytotoxicity rating SETVI ([3]; 63 g ai/ha): 0
Pre-emerge herbicidal activity, phytotoxicity rating SETVI ([3]; 250 g ai/ha): 0
Pre-emerge herbicidal activity, phytotoxicity rating IPOHE ([4]; 63 g ai/ha): 0
Pre-emerge herbicidal activity, phytotoxicity rating IPOHE ([4]; 250 g ai/ha): 0
Pre-emerge herbicidal activity, phytotoxicity rating SORHA ([5]; 63 g ai/ha): 0
Pre-emerge herbicidal activity, phytotoxicity rating SORHA ([5]; 250 g ai/ha): 0
Pre-emerge herbicidal activity, phytotoxicity rating CHEAL ([6]; 63 g ai/ha): 0
Pre-emerge herbicidal activity, phytotoxicity rating CHEAL ([6]; 250 g ai/ha): 50
Pre-emerge herbicidal activity, phytotoxicity rating DIGSA ([7]; 63 g ai/ha): 0
Pre-emerge herbicidal activity, phytotoxicity rating DIGSA ([7]; 250 g ai/ha): 50
Pre-emerge herbicidal activity, phytotoxicity rating CASOB ([8]; 63 g ai/ha): 0
Pre-emerge herbicidal activity, phytotoxicity rating CASOB ([8]; 250 g ai/ha): 0
Pre-emerge herbicidal activity, phytotoxicity rating ABUTH ([9]; 63 g ai/ha): 0
Pre-emerge herbicidal activity, phytotoxicity rating ABUTH ([9]; 250 g ai/ha): 80
Pre-emerge phytotoxicity rating, crop damage CORN ([10]; 63 g ai/ha): 0
Pre-emerge phytotoxicity rating, crop damage CORN ([10]; 250 g ai/ha): 10
Pre-emerge phytotoxicity rating, crop damage RICE ([11]; 63 g ai/ha): 0
Pre-emerge phytotoxicity rating, crop damage RICE ([11]; 250 g ai/ha): 20
Post-emerge Herbicidal Activity, phytotoxicity rating ECHCG ([12]; Rate 63 g ai/ha): 100
Post-emerge Herbicidal Activity, phytotoxicity rating ECHCG ([12]; Rate 250 g ai/ha): 100
Post-emerge Herbicidal Activity, phytotoxicity rating AMBEL ([13]; Rate 63 g ai/ha): 100
Post-emerge Herbicidal Activity, phytotoxicity rating AMBEL ([13]; Rate 250 g ai/ha): 100
Post-emerge Herbicidal Activity, phytotoxicity rating SETVI ([14]; Rate 63 g ai/ha): 20
Post-emerge Herbicidal Activity, phytotoxicity rating SETVI ([14]; Rate 250 g ai/ha): 70
Post-emerge Herbicidal Activity, phytotoxicity rating IPOHE ([15]; Rate 63 g ai/ha): 80
Post-emerge Herbicidal Activity, phytotoxicity rating IPOHE ([15]; Rate 250 g ai/ha): 80
Post-emerge Herbicidal Activity, phytotoxicity rating SORHA ([16]; Rate 63 g ai/ha): 50
Post-emerge Herbicidal Activity, phytotoxicity rating SORHA ([16]; Rate 250 g ai/ha): 70
Post-emerge Herbicidal Activity, phytotoxicity rating CHEAL ([17]; Rate 63 g ai/ha): 30
Post-emerge Herbicidal Activity, phytotoxicity rating CHEAL ([17]; Rate 250 g ai/ha): 60
Post-emerge Herbicidal Activity, phytotoxicity rating DIGSA ([18]; Rate 63 g ai/ha): 70
Post-emerge Herbicidal Activity, phytotoxicity rating DIGSA ([18]; Rate 250 g ai/ha): 95
Post-emerge Herbicidal Activity, phytotoxicity rating AMARE ([19]; Rate 63 g ai/ha): 90
Post-emerge Herbicidal Activity, phytotoxicity rating AMARE ([19]; Rate 250 g ai/ha): 100
Post-emerge Herbicidal Activity, phytotoxicity rating CASOB ([20]; Rate 63 g ai/ha): 0
Post-emerge Herbicidal Activity, phytotoxicity rating CASOB ([20]; Rate 250 g ai/ha): 40
Post-emerge Herbicidal Activity, phytotoxicity rating ABUTH ([21]; Rate 63 g ai/ha): 50
Post-emerge Herbicidal Activity, phytotoxicity rating ABUTH ([21]; Rate 250 g ai/ha): 100
Post-emerge phytotoxicity rating CORN (crop damage) ([22]; Rate 63 g ai/ha): 15
Post-emerge phytotoxicity rating CORN (crop damage) ([22]; Rate 250 g ai/ha): 50
Post-emerge phytotoxicity rating RICE (crop damage) ([23]; Rate 63 g ai/ha): 0
Post-emerge phytotoxicity rating RICE (crop damage) ([23]; Rate 250 g ai/ha): 10
